Legend:
[1] = test system: mAb1; experiment: Light stress of mAb1 formulation (eight hours at 250 W/m^2), papain digest RP-HPLC; type: physicochemical, human; conditions: mAb1 5 mg/mL, eight hours of light at 250 W/m^2
Experimental: L-tryptophan (L-Trp), an antioxidant used in protein formulations, has been recently shown to be photosensitive (Igarashi et al., Anal Sci 23(8):943-8 (2007)) and to have the ability to produce H2O2 upon light exposure. […] Control vials were wrapped in aluminum foil and treated similarly. After light exposure, solutions were prepared for analysis by reverse-phase HPLC. […] Following incubation, 900 μL of the solution was combined with 100 μL of 1 M dithiothreitol (DTT) and incubated for another thirty minutes at 37° C. Samples were then run on an Agilent, Inc. 1100/1200 HPLC system (Santa Clara, Calif.) equipped with UV detection at 280 nm in conjunction with a Varian, Inc. Pursuit 3 μm, 2 mm ID×250 mm diphenyl column (Palo Alto, Calif.). Mobile Phase A was 0.1% TFA in water. Mobile Phase B was 0.1% TFA in acetonitrile. The mobile phase gradient increased linearly from 34% B at 0 minutes to 43% B at 50.0 minutes, then to 95% B at 50.1 minutes. The gradient remained at 95% B until 60.1 minutes, and then decreased linearly from 95% B to 34% B between 60.1 and 60.2 minutes. The gradient remained at 34% B until the end of the cycle at 80.2 minutes. The column temperature was 65° C., total flow rate was 0.2 mL/min, and injection volume of each sample was 6 μL. Chromatograms were then integrated for quantification of oxidation.

[2] = Cyclic voltammetry (CV) screening assay, oxidation potential; type: physicochemical
Experimental: The oxidation/reduction characteristics of the compounds were investigated. Several compounds, including L-Trp and derivatives, were evaluated for the protection of Trp oxidation in proteins using cyclic voltammetry (CV) and rank ordered based on their oxidation potentials (Table 2). Specifically, the candidate antioxidants were dissolved in deionized water and then added to a 0.2 M lithium perchlorate electrolyte solution. […] Solutions were scanned from −0.10 V to +1.50 V at a scan rate of either 100 or 500 mV/sec. The analytical cell was purged for four minutes with nitrogen before scanning of each antioxidant solution. The input was a linear scan of the potential of a working electrode, and the output was measurement of the resulting current. […] Redox reactions were characterized by sharp increases or decreases in current (peaks). The potential at which an oxidation reaction occurred was referred to as the anodic peak potential (or oxidation potential), and the potential at which a reduction occurred was referred to as is the cathodic peak (or reduction) potential.

[3] = test system: mAb1; experiment: mAb1 light stress study (16 hours at 250 W/m^2), RP-HPLC; type: physicochemical, human; conditions: 16 hours of light at 250 W/m^2
Experimental: The fragments were reduced with DTT, and then separated and identified via Liquid Chromatography-Mass Spectrometry (LC-MS). […] Comparison of area integrated under the oxidized and native peaks was used to quantify HC Fab and Fc oxidation. […] By using the papain digest RP-HPLC method in the present study it was possible to investigate Trp residue oxidation by quantifying HC Fab oxidation, and Met residue oxidation by quantifying HC Fc oxidation.
Antioxidants were added at 1 mM. Glass vials containing these formulations were exposed to 250 W/m^2 light in an Atlas SunTest CPS+ Xenon Test Instrument (Chicago, Ill.). Control vials were wrapped in aluminum foil and treated similarly. After light exposure, solutions were prepared for analysis by reverse-phase HPLC as described above.

[4] = H2O2 generation by free L-Trp upon light exposure, Amplex assay; type: physicochemical
Experimental: It was previously reported that L-Trp produced H2O2 via superoxide ion and in a sub-stoichiometric fashion while antibodies under similar conditions were producing catalytic amounts (Wentworth et al., Science 293(5536):1806-11 (2001); McCormick et al., Journal of the American Chemical Society 100:312-313 (1978)). To test the susceptibility of free L-Trp under pharmaceutically relevant conditions, such as under both ICH and ambient light conditions, formulations comprising 0.32 mM to 7.5 mM of L-Trp were exposed for 3 hours at 250 W/m^2 UV light and about 150 k lux visible light. Samples were taken and analyzed immediately via the Amplex assay to detect the amount of H2O2 generated under these conditions. […] When L-Trp was incubated with a combination of 50 mM NaN3 and 150 U superoxide dismutase (SOD) or SOD alone, significant amounts of H2O2 were still detected in the samples not containing NaN3.

[5] = test system: mAb1; experiment: Ambient light exposure of 50 mg/mL mAb1 formulations containing L-Trp (Amplex assay, RP-HPLC); type: physicochemical, human
Description: While confirming the photosensitivity of free L-Trp under ICH light conditions, the effect of ambient light that was typically seen in laboratories was studied. Measurements using a DLM1 digital light meter in various labs indicated an average of 300 lux on a lab benchtop (with white fluorescent lighting), an average of 3000 lux in a laminar flow hood (with white fluorescent lighting) and about 10000 lux for a windowsill exposed to southeast sunlight. […] Peroxide production increased with both luminosity (300, 3000, and 10000 lux) and time (1, 3, and 7 days). […] These levels of light exposure and time were determined to be pharmaceutically relevant for drug substance handling under ambient light and temperature before fill/finish operations and potentially while inspecting drug product vials.

[6] = test system: mAb1; experiment: mAb1 Fenton stress study (H2O2 + Fe), RP-HPLC; type: physicochemical, human; conditions: 10 ppm H2O2 and 0.2 mM Fe(III), 40° C. for 3 hours; antioxidant 1 mM
Experimental: Antioxidants were added at a final concentration of 1 mM. […] After incubation, each reaction was quenched by addition of 100 mM L-Met and then prepared for analysis by reverse-phase HPLC as described above.
The Fenton reaction, using a mixture of H2O2 and Fe ions, generates oxidation through a metal catalyzed, hydroxyl radical reaction (Prousek et al., Pure and Applied Chemistry 79(12):2325-2338 (2007)). This reaction generated Fab, i.e. tryptophan, oxidation in mAb1. The reaction was also carried out in the presence of select antioxidants that were useful against both AAPH and light induced oxidation as reported above. Data related to the antioxidant properties against Fenton mediated reaction were analyzed using the RP-HPLC assay as described above. The Fenton reaction used 10 ppm of H2O2 and 0.2 mM of Fe(III). The reaction was incubated at 40° C. for 3 hours, quenched with 100 mM L-Met and analyzed using RP-HPLC after papain digest. All samples were the average of three separate vials, and mAb1 control (Ref Mat) was one vial with five independent injections on the HPLC. […] In regards to protection against Fc oxidation, the tested excipients (other than salicylic acid) performed slightly better than L-Trp.

In the case of `N[C@@H](Cc1c[nH]c2ccccc12)C(=O)O` [L-Trp, L-tryptophan], the Fc oxidation ([1]; 1 mM L-Trp, reference material and foil control about 8%) is reported as “over 20%”, the Fab oxidation ([1]; no excipient or 1 mM L-Trp, reference material and foil control about 2%) is reported as about 9% and the “Oxidation Potential” value ([2]; anodic peak potential, glassy carbon working electrode, 0.2M lithium perchlorate) is reported as 0.938 V vs Ag/AgCl. For the same compound, the “Oxidation Potential” value ([2]; cyclic voltammetry, 0.2 M lithium perchlorate) was 0.938 V vs Ag/AgCl, the “Fc oxidation as multiple of the control level” value ([3]; 1 mM L-Trp) was 7 times and the “Fab oxidation increase over the control level (mAb1 Ref Mat)” value ([3]; excipient 1 mM or none) was “over 11 fold”. The “H2O2 generated upon light exposure” value ([4]; 0.32 mM to 7.5 mM L-Trp, 3 hours at 250 W/m^2 UV light and about 150 k lux visible light) was “large quantity of H2O2”, the “H2O2 generation in the presence of 50 mM sodium azide” value ([4]; 3 hours at 250 W/m^2 UV light, 50 mM sodium azide) was “reduced greatly” and the “Heavy chain Fab oxidation (W53) under ambient light, in words” value ([5]; 50 mg/mL mAb1 with L-Trp, increasing luminosity) was “increased heavy chain Fab oxidation”. The “% Fc oxidation in mAb1” value ([5]; 300 lux, 50 mg/mL mAb1 with L-Trp) was 5%, the “% Fc oxidation in mAb1” value ([5]; 10000 lux, 50 mg/mL mAb1 with L-Trp) was 40% and the “Hydrogen peroxide production under ambient light” value ([5]; L-Trp in formulation buffers containing 50 mg/mL mAb1, 300, 3000, 10000 lux, 1, 3, 7 days) was “micromolar range”. The “Protection of Fab oxidation with respect to the no excipient case” value [6] was “about 25%”.
